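Cells were grown in 96-well plates and exposed to each compound for 48 hours at five concentrations; endpoints were interpolated linearly between bracketing concentrations, or set to the highest concentration if not reached. GI50: concentration for 50% inhibition of growth.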 Activity calls are given as the source filed them. No stated cut-off is given here; in the data, active = GI50 up to about 1.1 µM and inactive = higher.
Columns and labels:
Experiment in all cases: inhibition of tumour cell growth, NCI panel, 48 h
786-0 = system: 786-0
A498 = system: A498
CAKI-1 = system: CAKI-1
CCRF-CEM = system: CCRF-CEM
COLO 205 = system: COLO 205
DLD-1 = system: DLD-1
DMS-114 = system: DMS-114
DMS-273 = system: DMS-273
HCC 2998 = system: HCC 2998
HCT-116 = system: HCT-116
HL-60 = system: HL-60
HOP-62 = system: HOP-62
HOP-92 = system: HOP-92
IGROV-1 = system: IGROV-1
K562 = system: K562
LXFL 529 = system: LXFL 529
M14 = system: M14
M19-MEL = system: M19-MEL
MOLT-4 = system: MOLT-4
Malme-3M = system: Malme-3M
NCI-H226 = system: NCI-H226
NCI-H23 = system: NCI-H23
NCI-H460 = system: NCI-H460
NCI-H522 = system: NCI-H522
OVCAR-4 = system: OVCAR-4
RPMI-8226 = system: RPMI-8226
SF-268 = system: SF-268
SF-539 = system: SF-539
SK-MEL-28 = system: SK-MEL-28
SK-MEL-2 = system: SK-MEL-2
SK-OV-3 = system: SK-OV-3
SN12C = system: SN12C
SNB-75 = system: SNB-75
SNB-78 = system: SNB-78
SR = system: SR
UACC-62 = system: UACC-62
UO-31 = system: UO-31
XF498 = system: XF498
A549 = system: A549
ACHN = system: ACHN
EKVX = system: EKVX
HCT-15 = system: HCT-15
HOP-18 = system: HOP-18
HT-29 = system: HT-29
KM-20L2 = system: KM-20L2
KM12 = system: KM12
LOX IMVI = system: LOX IMVI
OVCAR-3 = system: OVCAR-3
OVCAR-5 = system: OVCAR-5
OVCAR-8 = system: OVCAR-8
RXF 393 = system: RXF 393
SF-295 = system: SF-295
SK-MEL-5 = system: SK-MEL-5
SNB-19 = system: SNB-19
SW-620 = system: SW-620
TK-10 = system: TK-10
U-251 = system: U-251
UACC-257 = system: UACC-257

With `CCNC1CC(n2cc(C)c(=O)[nH]c2=O)OC1CO` (stereo not given) the GI50 (786-0) was > 100 µM (inactive), the GI50 (A498) was > 100 µM (inactive) and the GI50 (CAKI-1) was > 100 µM (inactive). For the same compound, the GI50 (CCRF-CEM) was > 100 µM (inactive), the GI50 (COLO 205) was > 100 µM (inactive) and the GI50 (DLD-1) was > 100 µM (inactive). For the same compound, the GI50 (DMS-114) was > 100 µM (inactive), the GI50 (DMS-273) was > 100 µM (inactive) and the GI50 (HCC 2998) was > 100 µM (inactive). For the same compound, the GI50 (HCT-116) was > 100 µM (inactive), the GI50 (HL-60) was > 100 µM (inactive) and the GI50 (HOP-62) was > 100 µM (inactive). The GI50 (HOP-92) was > 100 µM (inactive), the GI50 (IGROV-1) was > 100 µM (inactive) and the GI50 (K562) was > 100 µM (inactive). The GI50 (LXFL 529) was > 100 µM (inactive), the GI50 (M14) was > 100 µM (inactive) and the GI50 (M19-MEL) was > 100 µM (inactive). The GI50 (MOLT-4) was > 100 µM (inactive), the GI50 (Malme-3M) was > 100 µM (inactive) and the GI50 (NCI-H226) was > 100 µM (inactive). For the same compound, the GI50 (NCI-H23) was > 100 µM (inactive), the GI50 (NCI-H460) was > 100 µM (inactive) and the GI50 (NCI-H522) was > 100 µM (inactive). For the same compound, the GI50 (OVCAR-4) was > 100 µM (inactive), the GI50 (RPMI-8226) was > 100 µM (inactive) and the GI50 (SF-268) was > 100 µM (inactive). For the same compound, the GI50 (SF-539) was > 100 µM (inactive), the GI50 (SK-MEL-28) was > 100 µM (inactive) and the GI50 (SK-MEL-2) was > 100 µM (inactive). For the same compound, the GI50 (SK-OV-3) was > 100 µM (inactive), the GI50 (SN12C) was > 100 µM (inactive) and the GI50 (SNB-75) was > 100 µM (inactive). For the same compound, the GI50 (SNB-78) was > 100 µM (inactive), the GI50 (SR) was > 100 µM (inactive) and the GI50 (UACC-62) was > 100 µM (inactive). For the same compound, the GI50 (UO-31) was > 100 µM (inactive) and the GI50 (XF498) was > 100 µM (inactive).
`Cc1cc(=O)oc2cc(OCc3nc4ccccc4c(=O)[nH]3)ccc12` was tested, and the GI50 (786-0) was > 100 µM (inactive), the GI50 (A498) was > 100 µM (inactive) and the GI50 (A549) was > 100 µM (inactive). For the same compound, the GI50 (ACHN) was > 100 µM (inactive), the GI50 (CAKI-1) was > 100 µM (inactive) and the GI50 (CCRF-CEM) was > 100 µM (inactive). For the same compound, the GI50 (COLO 205) was > 100 µM (inactive), the GI50 (DLD-1) was > 100 µM (inactive) and the GI50 (DMS-114) was > 100 µM (inactive). For the same compound, the GI50 (DMS-273) was > 100 µM (inactive), the GI50 (EKVX) was > 100 µM (inactive) and the GI50 (HCC 2998) was > 100 µM (inactive). For the same compound, the GI50 (HCT-116) was > 100 µM (inactive), the GI50 (HCT-15) was over 100 µM and the GI50 (HL-60) was > 100 µM (inactive). The GI50 (HOP-18) was > 100 µM (inactive), the GI50 (HOP-62) was > 100 µM (inactive) and the GI50 (HOP-92) was > 100 µM (inactive). For the same compound, the GI50 (HT-29) was > 100 µM (inactive), the GI50 (IGROV-1) was > 100 µM (inactive) and the GI50 (K562) was > 100 µM (inactive). For the same compound, the GI50 (KM-20L2) was > 100 µM (inactive), the GI50 (KM12) was > 100 µM (inactive) and the GI50 (LOX IMVI) was > 100 µM (inactive). For the same compound, the GI50 (LXFL 529) was > 100 µM (inactive), the GI50 (M14) was > 100 µM (inactive) and the GI50 (M19-MEL) was > 100 µM (inactive). For the same compound, the GI50 (MOLT-4) was > 100 µM (inactive), the GI50 (Malme-3M) was > 100 µM (inactive) and the GI50 (NCI-H226) was > 100 µM (inactive). For the same compound, the GI50 (NCI-H23) was > 100 µM (inactive), the GI50 (NCI-H460) was > 100 µM (inactive) and the GI50 (NCI-H522) was > 100 µM (inactive). For the same compound, the GI50 (OVCAR-3) was > 100 µM (inactive), the GI50 (OVCAR-4) was > 100 µM (inactive) and the GI50 (OVCAR-5) was > 100 µM (inactive). For the same compound, the GI50 (OVCAR-8) was > 100 µM (inactive), the GI50 (RPMI-8226) was > 100 µM (inactive) and the GI50 (RXF 393) was > 100 µM (inactive). For the same compound, the GI50 (SF-268) was > 100 µM (inactive), the GI50 (SF-295) was > 100 µM (inactive) and the GI50 (SF-539) was > 100 µM (inactive). For the same compound, the GI50 (SK-MEL-28) was > 100 µM (inactive), the GI50 (SK-MEL-2) was > 100 µM (inactive) and the GI50 (SK-MEL-5) was > 100 µM (inactive). For the same compound, the GI50 (SK-OV-3) was > 100 µM (inactive), the GI50 (SN12C) was > 100 µM (inactive) and the GI50 (SNB-19) was > 100 µM (inactive). For the same compound, the GI50 (SNB-75) was > 100 µM (inactive), the GI50 (SW-620) was > 100 µM (inactive) and the GI50 (TK-10) was > 100 µM (inactive). For the same compound, the GI50 (U-251) was > 100 µM (inactive), the GI50 (UACC-62) was > 100 µM (inactive) and the GI50 (XF498) was > 100 µM (inactive).
`COc1ccccc1-c1cc(=O)c2cc(C)c(C)c(C(=O)O)c2o1` was tested, and the GI50 (786-0) was > 100 µM (inactive), the GI50 (A498) was > 100 µM (inactive) and the GI50 (A549) was > 100 µM (inactive). For the same compound, the GI50 (ACHN) was > 100 µM (inactive), the GI50 (CCRF-CEM) was > 100 µM (inactive) and the GI50 (COLO 205) was > 100 µM (inactive). The GI50 (DLD-1) was > 100 µM (inactive), the GI50 (DMS-114) was > 100 µM (inactive) and the GI50 (DMS-273) was > 100 µM (inactive). For the same compound, the GI50 (EKVX) was > 100 µM (inactive), the GI50 (HCC 2998) was > 100 µM (inactive) and the GI50 (HCT-116) was > 100 µM (inactive). The GI50 (HCT-15) was over 100 µM, the GI50 (HL-60) was > 100 µM (inactive) and the GI50 (HOP-62) was > 100 µM (inactive). The GI50 (HOP-92) was > 100 µM (inactive), the GI50 (HT-29) was > 100 µM (inactive) and the GI50 (IGROV-1) was > 100 µM (inactive). For the same compound, the GI50 (K562) was > 100 µM (inactive), the GI50 (KM-20L2) was > 100 µM (inactive) and the GI50 (KM12) was > 100 µM (inactive). For the same compound, the GI50 (LOX IMVI) was > 100 µM (inactive), the GI50 (LXFL 529) was > 100 µM (inactive) and the GI50 (M14) was > 100 µM (inactive). For the same compound, the GI50 (M19-MEL) was > 100 µM (inactive), the GI50 (MOLT-4) was > 100 µM (inactive) and the GI50 (Malme-3M) was > 100 µM (inactive). For the same compound, the GI50 (NCI-H23) was > 100 µM (inactive), the GI50 (NCI-H460) was > 100 µM (inactive) and the GI50 (NCI-H522) was > 100 µM (inactive). The GI50 (OVCAR-3) was > 100 µM (inactive), the GI50 (OVCAR-4) was > 100 µM (inactive) and the GI50 (OVCAR-5) was > 100 µM (inactive). For the same compound, the GI50 (OVCAR-8) was > 100 µM (inactive), the GI50 (RPMI-8226) was > 100 µM (inactive) and the GI50 (SF-268) was > 100 µM (inactive). For the same compound, the GI50 (SF-295) was > 100 µM (inactive), the GI50 (SF-539) was > 100 µM (inactive) and the GI50 (SK-MEL-28) was > 100 µM (inactive). The GI50 (SK-MEL-2) was > 100 µM (inactive), the GI50 (SK-MEL-5) was > 100 µM (inactive) and the GI50 (SK-OV-3) was > 100 µM (inactive). The GI50 (SN12C) was > 100 µM (inactive), the GI50 (SNB-19) was > 100 µM (inactive) and the GI50 (SNB-75) was 40.2 µM (inactive). The GI50 (SNB-78) was > 100 µM (inactive), the GI50 (SW-620) was > 100 µM (inactive) and the GI50 (TK-10) was > 100 µM (inactive). The GI50 (U-251) was > 100 µM (inactive), the GI50 (UACC-257) was > 100 µM (inactive) and the GI50 (UACC-62) was > 100 µM (inactive). For the same compound, the GI50 (UO-31) was > 100 µM (inactive) and the GI50 (XF498) was > 100 µM (inactive).

From ChEMBL document CHEMBL1201862, “PubChem BioAssay data set” (2004)
